Measured values taken from publication PMC3516572, “MiniCD4 Microbicide Prevents HIV Infection of Human Mucosal Explants and Vaginal Transmission of SHIV162P3 in Cynomolgus Macaques” (PLoS Pathogens, 2012).

Experiments:
SHIV162P3 = settings: cited from earlier work
Text: The use of effective therapeutic drugs, such as tenofovir and more recently dapivirine tested in phase III trial, targeting post-entry events in the viral replication cycle (reverse transcription, integration and viral maturation) remains attractive, however the impact of their dual use in prevention and therapy on the potential induction of resistance evolution remains controversial. In contrast drugs that target the initial steps of viral attachment to CD4 and one of two co-receptors (CCR5 or CXCR4) triggering viral fusion with susceptible targets cells (entry inhibitors) are not widel ...

penile tissue explants = experiment: MTT viability assay on penile tissue explants; format: cell-based, human; settings: 24 h at 37°C, then MTT 2 h; M48U1 ten-fold dilutions, highest concentrations tested; nonoxynol-9 at 500 ng/mL; two independent experiments in triplicates
Text: Cervical tissue was obtained from patients undergoing planned therapeutic hysterectomy at St. George's Hospital in London, United Kingdom. Surgically resected specimens of colorectal tissue were collected at St. George's Hospital, London, United Kingdom. Penile tissue (glans) was obtained from individuals undergoing gender reassignment surgery at Charing Cross Hospital. All tissues were collected after signed informed consent was received from all patients and under protocols approved by the Local Research Ethics Committee (National Research Ethic Service NHS). On arrival in the laboratory, resected tissue was cut into 2–3 mm^3 explants comprising both epithelial and stromal tissue or muscularis mucosae, depending on the tissue, as described previously, [22].
Penile tissues and PM-1 T cells were incubated in complete RPMI medium supplemented with ten-fold dilutions of M48U1 for 24 h at 37°C. Nonoxynol-9 microbicide (tested at 500 ng/mL) was employed as cytotoxic reference. […] For tissue, after releasing the formazan in ethanol overnight, cytotoxicity was determined by measuring the optical density of the purple formazan product at 570–690 nm using Synergy HT multi-detection microplate reader. For PM-1 cells, the absorption of the formazan product was determined after lysis of the cells.

PM-1 T cells = experiment: MTT viability assay on PM-1 T cells; format: cell-based; settings: 24 h at 37°C, then MTT 2 h; M48U1 ten-fold dilutions, highest concentrations tested; nonoxynol-9 at 500 ng/mL; two independent experiments in triplicates
Experimental: Penile tissues and PM-1 T cells were incubated in complete RPMI medium supplemented with ten-fold dilutions of M48U1 for 24 h at 37°C. Nonoxynol-9 microbicide (tested at 500 ng/mL) was employed as cytotoxic reference. The compounds were removed and the tissue explants and cells were incubated for 2 h in medium containing 500 µg/mL of 3-(4,5-dimethylthiazol-2-yl)-2,5-diphenyltetrazolium bromide (MTT). For tissue, after releasing the formazan in ethanol overnight, cytotoxicity was determined by measuring the optical density of the purple formazan product at 570–690 nm using Synergy HT multi-detection microplate reader. For PM-1 cells, the absorption of the formazan product was determined after lysis of the cells.

Structure (SMILES)	Protection of NHP from vaginal challenge with SHIV162P3 (SHIV162P3)	Cytotoxicity (MTT) in penile tissue (penile tissue explants)	Cytotoxicity (MTT) in PM-1 T-cell line (PM-1 T cells)
COc1ccnc2[nH]cc(C(=O)C(=O)N3CCN(C(=O)c4ccccc4)C[C@H]3C)c12 [BMS-378806]	could protect NHP		
CCCCCCCCCc1ccc(OCCOCCOCCOCCOCCOCCOCCOCCOCCO)cc1 [nonoxynol-9]		significant toxicity	significant toxicity
